Columns and labels:
HBV DNA = HBV DNA assay (real-time qPCR of extracellular HBV DNA); type: cell-based; settings: Hepatitis B virus, 144 h; Anti HBV DNA production activity in HepG2.2.15 cells; supernatant collected six days after treatment
Experimental: HepG2.2.15 cells (Acs et al. Proc Natl Acad Sci USA, 84, (1987), 4641-4), a constitutively HBV-expressing cell line were cultured in DMEM+Glutamax-I medium (Invitrogen, Carlsbad, Calif., USA), supplemented with 10% fetal bovine serum (Invitrogen) and G418 (Invitrogen) at a final concentration of 200 mg/L and maintained in 5% CO2 at 37° C.
The assay employs real-time qPCR (TaqMan) to directly measure extracellular HBV DNA copy number in the cell supernatant. HepG2.2.15 cells were plated in 96-well microtiter plates before treatment with complete medium (DMEM, Glutamax, 10% FBS, 1% Penicillin/Streptomycin, 250 μg/mL Genetycin, final DMSO concentration is 1%/o). Only the interior wells were utilized to reduce “edge effects” observed during cell culture, the exterior wells were filled with complete medium to help minimize sample evaporation. The HepG2.2.15 cells were treated 1 h later with various concentrations of a test compound in duplicate (top concentration used at 5 μM, 2 μM or 0.5 μM according to the HBsAg IC50 observed, with ⅓ successive dilutions (total of 10 dilutions). Six days following the initial administration of the test compound, the cell culture supernatant was collected; DNA extraction was performed by automated system (Magnapure) and then used in a real-time qPCR/TaqMan assay to determine HBV DNA copy numbers. Antiviral activity was calculated from the reduction in HBV DNA levels (IC50).
The compounds of the present invention were tested for their capacity to inhibit HBV DNA as described herein.

HBsAg = HBsAg assay (chemiluminescence immunoassay of secreted HBsAg); type: cell-based, HBV; settings: HepG2.2.15 cells, CLIA of culture supernatant
Outline: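 HepG2.2.15 cells, in duplicate, treated with three-fold serial compound dilutions (1% DMSO final); secreted HBsAg in supernatant quantified by chemiluminescence immunoassay; IC50 is the concentration reducing HBsAg secretion by 50% versus the DMSO control.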

[1] = Hepatitis B virus, HepG2.2.15, HBsAg secretion

SMILES | IC50 (HBV DNA) [nM] | IC50 (HBsAg; [1]) [nM] | IC50 (HBsAg; HBsAg secretion) [nM]
COC1CCN(c2cc(F)nc(N3CCc4nc(-c5ncccn5)ncc4C3C)c2)C1 (centres unmarked) [Example 20, 6-[6-fluoro-4-(3-methoxypyrrolidin-1-yl)-2-pyridyl]-5-methyl-2-pyrimidin-2-yl-7,8-dihydro-5H-pyrido[4,3-d]pyrimidine] | 0.15 | 10 | –
CCS(=O)(=O)N1CCN(c2cc(F)nc(N3CCc4nc(-c5ncccn5)ncc4C3C)c2)CC1 (centres unmarked) [Example 90, 6-[4-(4-ethylsulfonylpiperazin-1-yl)-6-fluoro-2-pyridyl]-5-methyl-2-pyrimidin-2-yl-7,8-dihydro-5H-pyrido[4,3-d]pyrimidine] | 1.1 | 5 | –
C[C@@H]1c2cnc(-c3ncccn3)nc2CCN1c1cc(N2CCN(S(C)(=O)=O)CC2)cc(F)n1 [Example 97, (−)-6-[6-Fluoro-4-(4-methylsulfonylpiperazin-1-yl)-2-pyridyl]-5-methyl-2-pyrimidin-2-yl-7,8-dihydro-5H-pyrido[4,3-d]pyrimidine] | 1.9 | – | 3
COC1CN(c2cc(F)nc(N3CCc4nc(-c5ncccn5)ncc4C3C)c2)C1 (centres unmarked) [Example 112, 6-[6-fluoro-4-(3-methoxyazetidin-1-yl)-2-pyridyl]-5-methyl-2-pyrimidin-2-yl-7,8-dihydro-5H-pyrido[4,3-d]pyrimidine] | 0.6 | 6 | –
CC1c2cnc(-c3ncccn3)nc2CCN1c1cc(N2CCCS2(=O)=O)cc(F)n1 (centres unmarked) [Example 115, 2-[2-Fluoro-6-(5-methyl-2-pyrimidin-2-yl-7,8-dihydro-5H-pyrido[4,3-d]pyrimidin-6-yl)-4-pyridyl]-1,2-thiazolidine1,1-dioxide] | 3.2 | 4 | –
CC1c2cnc(-c3ncccn3)nc2CCN1c1cc(N2CC(F)C2)cc(F)n1 (centres unmarked) [Example 123, 6-[6-fluoro-4-(3-fluoroazetidin-1-yl)-2-pyridyl]-5-methyl-2-pyrimidin-2-yl-7,8-dihydro-5H-pyrido[4,3-d]pyrimidine] | 0.43 | 12 | –
CC1c2cnc(-c3ncccn3)nc2CCN1c1cc(N(C)S(C)(=O)=O)cc(F)n1 (centres unmarked) [Example 159, N-[2-fluoro-6-(5-methyl-2-pyrimidin-2-yl-7,8-dihydro-5H-pyrido[4,3-d]pyrimidin-6-yl)-4-pyridyl]-N-methyl-methanesulfonamide] | – | 14 | –
CC1c2cnc(-c3ncccn3)nc2CCN1c1cc(N(C)S(=O)(=O)C2CC2)cc(F)n1 (centres unmarked) [Example 160, N-[2-fluoro-6-(5-methyl-2-pyrimidin-2-yl-7,8-dihydro-5H-pyrido[4,3-d]pyrimidin-6-yl)-4-pyridyl]-N-methyl-cyclopropanesulfonamide] | – | 6 | –
CC1c2cnc(-c3ncccn3)nc2CCN1c1cc(N(C)S(=O)(=O)c2ccccc2)cc(F)n1 (centres unmarked) [Example 161, N-[2-Fluoro-6-(5-methyl-2-pyrimidin-2-yl-7,8-dihydro-5H-pyrido[4,3-d]pyrimidin-6-yl)-4-pyridyl]-N-methyl-benzenesulfonamide] | – | 5 | –
CC1c2cnc(-c3ncccn3)nc2CCN1c1cc(N2CCCCS2(=O)=O)cc(F)n1 (centres unmarked) [Example 162, 2-[2-Fluoro-6-(5-methyl-2-pyrimidin-2-yl-7,8-dihydro-5H-pyrido[4,3-d]pyrimidin-6-yl)-4-pyridyl]thiazinane1,1-dioxide] | – | 15 | –
CC1c2cnc(-c3ncccn3)nc2CCN1c1cc(N(C)C(=O)c2ccccc2)cc(F)n1 (centres unmarked) [Example 163, N-[2-Fluoro-6-(5-methyl-2-pyrimidin-2-yl-7,8-dihydro-5H-pyrido[4,3-d]pyrimidin-6-yl)-4-pyridyl]-N-methyl-benzamide] | – | 91 | –

From US11104674B2 (Hoffmann-La Roche Inc., priority 2016, dated 2021)
